From patent publication US20050070510A1, “Substituted tetracycline compounds as synergistic antifungal agents” (Paratek Pharmaceuticals, Inc., priority 2001, published 2005)

What follows are molecules tested on COS-1 cells (assay: In vitro mammalian cytotoxicity assay (Resazurin)).

SMILES | In Vitro Cytotoxicity
COC(=O)/C=C/c1ccc2c(c1O)C(=O)C1=C(O)[C@]3(C#N)C(=O)C(C(N)=O)=C(O)[C@@H](N(C)C)[C@]3(N)[C@@H](O)[C@]1(N)C2N (stereo partly drawn) [AW] | ** (toxicities less than 25 μg/mL are represented by **)
CN(C)c1cc(-c2ccco2)c(O)c2c1C[C@@]1(N)C[C@@]3(N)[C@H](N(C)C)C(O)=C(C(N)=O)C(=O)[C@@]3(C#N)C(O)=C1C2=O [DZ] | ** (toxicities less than 25 μg/mL are represented by **)
CN(C)[C@@H]1C(O)=C(C(N)=O)C(=O)[C@@]2(C#N)C(O)=C3C(=O)c4c(O)ccc(C(=O)Cc5ccccc5)c4C[C@@]3(N)C[C@@]12N [MB] | * (toxicities greater than >25 μg/ml are represented by *)
CN(C)c1cc(NCc2cc(F)cc(F)c2)c(O)c2c1C[C@@]1(N)C[C@@]3(N)[C@H](N(C)C)C(O)=C(C(N)=O)C(=O)[C@@]3(C#N)C(O)=C1C2=O [TS] | ** (toxicities less than 25 μg/mL are represented by **)
CC(C)NCc1ccc(-c2ccc(O)c3c2C[C@@]2(N)C[C@@]4(N)[C@H](N(C)C)C(O)=C(C(N)=O)C(=O)[C@@]4(C#N)C(O)=C2C3=O)c2ccccc12 [OE] | ** (toxicities less than 25 μg/mL are represented by **)
CCCCOc1ccc(O)c2c1C[C@@]1(N)C[C@@]3(N)[C@H](N(C)C)C(O)=C(C(N)=O)C(=O)[C@@]3(C#N)C(O)=C1C2=O [DL] | ** (toxicities less than 25 μg/mL are represented by **)
CN(C)[C@@H]1C(O)=C(C(N)=O)C(=O)[C@@]2(C#N)C(O)=C3C(=O)c4c(ccc(N5CCCCC5)c4O)[C@H](N)[C@@]3(N)[C@H](O)[C@@]12N [SA] | * (toxicities greater than >25 μg/ml are represented by *)
CC(C)COC(=O)Nc1ccc(-c2ccc(O)c3c2C[C@@]2(N)C[C@@]4(N)[C@H](N(C)C)C(O)=C(C(N)=O)C(=O)[C@@]4(C#N)C(O)=C2C3=O)cc1 [OD] | ** (toxicities less than 25 μg/mL are represented by **)
CCC#Cc1ccc(O)c2c1C[C@@]1(N)C[C@@]3(N)[C@H](N(C)C)C(O)=C(C(N)=O)C(=O)[C@@]3(C#N)C(O)=C1C2=O [JW] | ** (toxicities less than 25 μg/mL are represented by **)
CCCc1cc(CN)c(O)c2c1C[C@@]1(N)C[C@@]3(N)[C@H](N(C)C)C(O)=C(C(N)=O)C(=O)[C@@]3(C#N)C(O)=C1C2=O [JS] | * (toxicities greater than >25 μg/ml are represented by *)
CCCCc1ccc(-c2cc(N(C)C)c3c(c2O)C(=O)C2=C(O)[C@]4(C#N)C(=O)C(C(N)=O)=C(O)[C@@H](N(C)C)[C@]4(N)C[C@]2(N)C3)cc1 [LY] | ** (toxicities less than 25 μg/mL are represented by **)
CN(C)[C@@H]1C(O)=C(C(N)=O)C(=O)[C@@]2(C#N)C(O)=C3C(=O)c4c(ccc(-c5ccc(C(=O)F)c6ccccc56)c4O)[C@H](N)[C@@]3(N)[C@H](O)[C@@]12N [PO] | ** (toxicities less than 25 μg/mL are represented by **)
CCOP(=O)(OCC)C(Nc1ccccc1)c1ccc(-c2cc(N(C)C)c3c(c2O)C(=O)C2=C(O)[C@]4(C#N)C(=O)C(C(N)=O)=C(O)[C@@H](N(C)C)[C@]4(N)C[C@]2(N)C3)cc1 (stereo partly drawn) [KP] | * (toxicities greater than >25 μg/ml are represented by *)
COc1ccc(CNCc2ccc(-c3ccc(O)c4c3C[C@@]3(N)C[C@@]5(N)[C@H](N(C)C)C(O)=C(C(N)=O)C(=O)[C@@]5(C#N)C(O)=C3C4=O)cc2)cc1 [PI] | ** (toxicities less than 25 μg/mL are represented by **)
C#Cc1cc(N(C)C)c2c(c1O)C(=O)C1=C(O)[C@]3(C#N)C(=O)C(C(N)=O)=C(O)[C@@H](N(C)C)[C@]3(N)C[C@]1(N)C2 [DI] | ** (toxicities less than 25 μg/mL are represented by **)
CCCCCc1cc(N(C)C)c2c(c1O)C(=O)C1=C(O)[C@]3(C#N)C(=O)C(C(N)=O)=C(O)[C@@H](N(C)C)[C@]3(N)C[C@]1(N)C2 [KW] | ** (toxicities less than 25 μg/mL are represented by **)
CC(=O)Nc1ccc(C#Cc2ccc(O)c3c2C[C@@]2(N)C[C@@]4(N)[C@H](N(C)C)C(O)=C(C(N)=O)C(=O)[C@@]4(C#N)C(O)=C2C3=O)cc1 [IU] | * (toxicities greater than >25 μg/ml are represented by *)
CC#Cc1cc(C#CC)c2c(c1O)C(=O)C1=C(O)[C@]3(C#N)C(=O)C(C(N)=O)=C(O)[C@@H](N(C)C)[C@]3(N)C[C@]1(N)C2 [NI] | ** (toxicities less than 25 μg/mL are represented by **)
CN(C)[C@@H]1C(O)=C(C(N)=O)C(=O)[C@@]2(C#N)C(O)=C3C(=O)c4c(ccc(CC(=O)c5ccno5)c4O)C[C@@]3(N)C[C@@]12N [RF] | * (toxicities greater than >25 μg/ml are represented by *)
CN(C)c1cc(C#CCc2ccccc2)c(O)c2c1C[C@@]1(N)C[C@@]3(N)[C@H](N(C)C)C(O)=C(C(N)=O)C(=O)[C@@]3(C#N)C(O)=C1C2=O [KL] | ** (toxicities less than 25 μg/mL are represented by **)

SMILES | In Vitro Cytotoxicity
Cc1cc(C)cc(-c2ccc(O)c3c2C[C@@]2(N)C[C@@]4(N)[C@H](N(C)C)C(O)=C(C(N)=O)C(=O)[C@@]4(C#N)C(O)=C2C3=O)c1 [GD] | ** (toxicities less than 25 μg/mL are represented by **)
CN(C)c1cc(CNCC2CCCCC2)c(O)c2c1C[C@@]1(N)C[C@@]3(N)[C@H](N(C)C)C(O)=C(C(N)=O)C(=O)[C@@]3(C#N)C(O)=C1C2=O [TB] | * (toxicities greater than >25 μg/ml are represented by *)
COc1ccc(CNCC(C)C)cc1-c1ccc(O)c2c1C[C@@]1(N)C[C@@]3(N)[C@H](N(C)C)C(O)=C(C(N)=O)C(=O)[C@@]3(C#N)C(O)=C1C2=O [LW] | * (toxicities greater than >25 μg/ml are represented by *)
CN(C)[C@@H]1C(O)=C(C(N)=O)C(=O)[C@@]2(C#N)C(O)=C3C(=O)c4c(O)ccc(C#CCCC#Cc5ccc(O)c6c5C[C@@]5(N)C[C@@]7(N)[C@H](N(C)C)C(O)=C(C(N)=O)C(=O)[C@@]7(C#N)C(O)=C5C6=O)c4C[C@@]3(N)C[C@@]12N [NC] | * (toxicities greater than >25 μg/ml are represented by *)
CN(C)c1cc(-c2ccc(CN3CCCC3)cc2)c(O)c2c1C[C@@]1(N)C[C@@]3(N)[C@H](N(C)C)C(O)=C(C(N)=O)C(=O)[C@@]3(C#N)C(O)=C1C2=O [JZ] | ** (toxicities less than 25 μg/mL are represented by **)
CN(C)[C@@H]1C(O)=C(C(N)=O)C(=O)[C@@]2(C#N)C(O)=C3C(=O)c4c(O)ccc(I)c4C[C@@]3(N)C[C@@]12N [CU] | ** (toxicities less than 25 μg/mL are represented by **)
CCCCCN(Cc1cccc(-c2ccc(O)c3c2C[C@@]2(N)C[C@@]4(N)[C@H](N(C)C)C(O)=C(C(N)=O)C(=O)[C@@]4(C#N)C(O)=C2C3=O)c1)P(=O)(OCC)OCC [KO] | * (toxicities greater than >25 μg/ml are represented by *)
CCCNCc1ccc(OC)c(-c2ccc(O)c3c2C[C@@]2(N)C[C@@]4(N)[C@H](N(C)C)C(O)=C(C(N)=O)C(=O)[C@@]4(C#N)C(O)=C2C3=O)c1 [LV] | * (toxicities greater than >25 μg/ml are represented by *)
Cc1ccc(-c2ccc(O)c3c2C[C@@]2(N)C[C@@]4(N)[C@H](N(C)C)C(O)=C(C(N)=O)C(=O)[C@@]4(C#N)C(O)=C2C3=O)cc1C [OJ] | ** (toxicities less than 25 μg/mL are represented by **)
CN(C)[C@@H]1C(O)=C(C(N)=O)C(=O)[C@@]2(C#N)C(O)=C3C(=O)c4c(O)cccc4[C@H](CSCc4ccccc4)[C@@]3(N)[C@H](O)[C@@]12N [DH] | ** (toxicities less than 25 μg/mL are represented by **)
CN(C)[C@@H]1C(O)=C(C(N)=O)C(=O)[C@@]2(C#N)C(O)=C3C(=O)c4c(O)cccc4[C@H](N)[C@@]3(N)[C@H](OC(=O)CCN3CCCC3)[C@@]12N [BQ] | ** (toxicities less than 25 μg/mL are represented by **)
CN(C)[C@@H]1C(O)=C(C(N)=O)C(=O)[C@@]2(C#N)C(O)=C3C(=O)c4c(O)c(F)cc(CN)c4C[C@@]3(N)C[C@@]12N [NQ] | ** (toxicities less than 25 μg/mL are represented by **)
CN(C)[C@@H]1C(O)=C(C(N)=O)C(=O)[C@@]2(C#N)C(O)=C3C(=O)c4c(O)cccc4/C(=C\c4ccc(F)cc4)[C@@]3(N)[C@H]([S+](N)[O-])[C@@]12N (stereo partly drawn) [BU] | ** (toxicities less than 25 μg/mL are represented by **)
CN(C)[C@@H]1C(O)=C(C(N)=O)C(=O)[C@@]2(C#N)C(O)=C3C(=O)c4c(O)c(C(C)(C)C)cc(I)c4C[C@@]3(N)C[C@@]12N [NR] | ** (toxicities less than 25 μg/mL are represented by **)
CN(C)[C@@H]1C(O)=C(C(N)=O)C(=O)[C@@]2(C#N)C(O)=C3C(=O)c4c(O)ccc(C#CCCCCC#Cc5ccc(O)c6c5C[C@@]5(N)C[C@@]7(N)[C@H](N(C)C)C(O)=C(C(N)=O)C(=O)[C@@]7(C#N)C(O)=C5C6=O)c4C[C@@]3(N)C[C@@]12N [Compound NB, 1,8-Di-7-Sancyclinyl-1,8-Heptyne] | * (toxicities greater than >25 μg/ml are represented by *)
CN(C)[C@@H]1C(O)=C(C(N)=O)C(=O)[C@@]2(C#N)C(O)=C3C(=O)c4c(O)c(CN5C(=O)c6ccccc6C5=O)cc(-c5cccc([N+](=O)O)c5)c4C[C@@]3(N)C[C@@]12N [JQ] | ** (toxicities less than 25 μg/mL are represented by **)
C=CCC(O)c1ccc(OC)c(-c2ccc(O)c3c2C[C@@]2(N)C[C@@]4(N)[C@H](N(C)C)C(O)=C(C(N)=O)C(=O)[C@@]4(C#N)C(O)=C2C3=O)c1 (stereo partly drawn) [UE] | ** (toxicities less than 25 μg/mL are represented by **)
CN(C)[C@@H]1C(O)=C(C(N)=O)C(=O)[C@@]2(C#N)C(O)=C3C(=O)c4c(O)ccc(-c5ccncc5)c4C[C@@]3(N)C[C@@]12N [UN] | ** (toxicities less than 25 μg/mL are represented by **)
CCc1ccc(-c2cc(N(C)C)c3c(c2O)C(=O)C2=C(O)[C@]4(C#N)C(=O)C(C(N)=O)=C(O)[C@@H](N(C)C)[C@]4(N)C[C@]2(N)C3)cc1 [LZ] | ** (toxicities less than 25 μg/mL are represented by **)
